Key:
human hepatoma G2 cells = experiment: Cytotoxicity assay (XTT colorimetric), Hep G2; type: cell-based; settings: Homo sapiens, HepG2; 48 h of drug exposure
rat glioma C6 cells = experiment: Cytotoxicity assay (XTT colorimetric), C6 cells; type: cell-based; settings: Rattus norvegicus, C6; 48 h of drug exposure
[1] = tested on: hepatitis B virus transfected hepatoma cell lines, HepG 2.2.15 cells; experiment: Cytotoxicity assay, 2.2.15 cells; type: cell-based, human; settings: Homo sapiens, HepG2.2.15; 48 h of drug exposure
[2] = tested on: transcriptional activity of hTERT; experiment: SEAP reporter assay of hTERT expression, PhTERT-SEAP (hTERT-BJ1); type: cell-based, human; settings: PhTERT-SEAP (hTERT-BJ1)
Procedure, shortened: (§1)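 We treated G418-selected reporter cells with varying drug amounts for 24 h and measured SEAP in the heat-inactivated medium as the rate of 405 nm absorbance increase.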

[3] = tested on: transcriptional activity of hTERT; experiment: SEAP reporter assay of hTERT expression, PhTERT-SEAP (H1299); type: cell-based, human; settings: PhTERT-SEAP(hTERT-H1299)
Procedure, shortened: as §1

[4] = MTT relative viability, PhTERT-SEAP (H1299) cells; settings: human
[5] = MTT relative viability, PhTERT-SEAP (hTERT-BJ1) cells; settings: human
[6] = Homo sapiens, 2.1 μM, read-out: Relative SEAP activity (%)
[7] = Homo sapiens, 21 μM, read-out: Relative SEAP activity (%)
[8] = Homo sapiens, 218 μM, read-out: Relative SEAP activity (%)
[9] = Homo sapiens, NCI-H1299, 2.1 μM, read-out: Relative SEAP activity (%)
[10] = Homo sapiens, NCI-H1299, 21 μM, read-out: Relative SEAP activity (%)
[11] = Homo sapiens, NCI-H1299, 218 μM, read-out: Relative SEAP activity (%)
[12] = hTERT-BJ1 cells stably transfected with PhTERT-SEAP reporter
[13] = hTERT-BJ1 cells, stable PhTERT-SEAP reporter clone

O=C1c2ccccc2C(=O)c2c(NC(=O)C3CCCCC3)ccc(NC(=O)C3CCCCC3)c21 [VI17, 1,4-Bis(cyclohexaneamido)-9,10-anthracenedione]
IC50 (human hepatoma G2 cells): > 20 µM
IC50 (rat glioma C6 cells): > 20 µM
IC50 [1]: > 20 µM
SEAP/vibility ([2]; 2.1 μM): 0.64
SEAP/vibility ([2]; 21 μM): 0.44
SEAP/vibility ([2]; 218 μM): 0.68
activity at 2.1 µM [2, 6]: 65 ± 16%
activity at 21 µM [2, 7]: 42 ± 24.3%
activity at 218 µM [2, 8]: 56 ± 16.3%
SEAP/vibility ([3]; 2.1 μM): 1.00
SEAP/vibility ([3]; 21 μM): 1.05
SEAP/vibility ([3]; 218 μM): 1.38
activity at 2.1 µM [3, 9]: 104 ± 1.8%
activity at 21 µM [3, 10]: 100 ± 6.2%
activity at 218 µM [3, 11]: 93 ± 2.5%
melting point: 309 to 310 °C
viability at 48 h, 2.1 µM [4]: 104 ± 6.4%
viability at 48 h, 21 µM [4]: 96 ± 5.8%
viability at 48 h, 218 µM [4]: 67 ± 1.5%
viability at 48 h, 218 µM [5, 12]: 83 ± 4.2%
viability at 48 h, 2.1 µM [5, 13]: 102 ± 3%
viability at 48 h, 21 µM [5, 13]: 97 ± 2.4%

O=C(CCC1CCCC1)Nc1ccc(NC(=O)CCC2CCCC2)c2c1C(=O)c1ccccc1C2=O [VI19, 1,4-Bis(3-cyclopentanepropionamido)-9,10-anthracenedione]
IC50 (human hepatoma G2 cells): > 20 µM
IC50 (rat glioma C6 cells): > 20 µM
IC50 [1]: > 20 µM
SEAP/vibility ([2]; 2.0 μM): 0.84
SEAP/vibility ([2]; 20 μM): 0.87
SEAP/vibility ([2]; 205 μM): 0.87
activity at 2 µM ([2]; Homo sapiens, 2.0 μM, read-out: Relative SEAP activity (%)): 90 ± 9.2%
activity at 20 µM ([2]; Homo sapiens, 20 μM, read-out: Relative SEAP activity (%)): 87 ± 5.5%
activity at 205 µM ([2]; Homo sapiens, 205 μM, read-out: Relative SEAP activity (%)): 87 ± 8%
SEAP/vibility ([3]; 2.0 μM): 1.06
SEAP/vibility ([3]; 20 μM): 1.09
SEAP/vibility ([3]; 205 μM): 1.15
activity at 2 µM ([3]; Homo sapiens, NCI-H1299, 2.0 μM, read-out: Relative SEAP activity (%)): 111 ± 9.4%
activity at 20 µM ([3]; Homo sapiens, NCI-H1299, 20 μM, read-out: Relative SEAP activity (%)): 116 ± 8%
activity at 205 µM ([3]; Homo sapiens, NCI-H1299, 205 μM, read-out: Relative SEAP activity (%)): 109 ± 9.2%
melting point: 166 to 167 °C
viability at 48 h, 2 µM [4]: 105 ± 2.1%
viability at 48 h, 20 µM [4]: 106 ± 4.7%
viability at 48 h, 205 µM [4]: 95 ± 1.3%
viability at 48 h, 205 µM [5, 12]: 100 ± 5.8%
viability at 48 h, 2 µM [5, 13]: 107 ± 3.6%
viability at 48 h, 20 µM [5, 13]: 101 ± 4.7%

O=C(Nc1ccc(NC(=O)c2cccs2)c2c1C(=O)c1ccccc1C2=O)c1cccs1 [VI22, 1,4-Bis(2-thiopheneamido)-9,10-anthracenedione]
IC50 (human hepatoma G2 cells): > 20 µM
IC50 (rat glioma C6 cells): > 20 µM
IC50 [1]: > 20 µM
SEAP/vibility ([2]; 2.1 μM): 0.80
SEAP/vibility ([2]; 21 μM): 0.93
SEAP/vibility ([2]; 218 μM): 1.07
activity at 2.1 µM [2, 6]: 94 ± 20.2%
activity at 21 µM [2, 7]: 92 ± 17.4%
activity at 218 µM [2, 8]: 90 ± 22.7%
SEAP/vibility ([3]; 2.1 μM): 0.93
SEAP/vibility ([3]; 21 μM): 0.98
SEAP/vibility ([3]; 218 μM): 1.16
activity at 2.1 µM [3, 9]: 100 ± 3.1%
activity at 21 µM [3, 10]: 105 ± 5.9%
activity at 218 µM [3, 11]: 97 ± 4.9%
melting point: 321 to 322 °C
viability at 48 h, 2.1 µM [4]: 108 ± 3.7%
viability at 48 h, 21 µM [4]: 107 ± 8.5%
viability at 48 h, 218 µM [4]: 84 ± 4.3%
viability at 48 h, 218 µM [5, 12]: 84 ± 6.9%
viability at 48 h, 2.1 µM [5, 13]: 118 ± 10.6%
viability at 48 h, 21 µM [5, 13]: 99 ± 8.2%
